Measurements from paper PMC10144323, “Preparation and Bioevaluation of a Novel ^99mTc-Labeled Glucose Derivative Containing Cyclohexane as a Promising Tumor Imaging Agent” (Pharmaceuticals, 2023).
Read-outs that look alike come from different tables or passages of the source.

Key:
[1] = In vitro stability in saline (radio-HPLC radiochemical purity); assay type: physicochemical; settings: 4 h in saline at room temperature
Protocol: (§1) The in vitro stability of the [^99mTc]Tc-CNMCHDG complex was determined by measuring its radiochemical purity. The labeled [^99mTc]Tc-CNMCHDG complex solution was placed in saline at room temperature for 4 h, and the radiochemical purity of the complex was calculated using radio-HPLC data to determine whether the complex had good stability at room temperature. Then, 100 μL of labeled solution (1.8 MBq) and 200 μL of mouse serum were added to a centrifuge tube, and the tube was placed in an incubator at 37 °C for 4 h. At the end of the incubation, 600 μL of an acetonitrile solvent was added to the centrifuge tube. Subsequently, the supernatant was filtered through a 0.22-μm filter and taken for HPLC analysis after centrifugation.

[2] = In vitro stability in mouse serum (radio-HPLC radiochemical purity); assay type: in vitro ADME; settings: 4 h in mouse serum at 37 °C
Protocol: as §1

[3] = Determination of the partition coefficient (log P); assay type: physicochemical; settings: n-octanol / phosphate buffer (0.025 M, pH 7.4)
Protocol: To determine the partition coefficient, 1.4 mL of phosphate buffer (0.025 M, pH 7.4) and 1.5 mL of n-octanol was taken into a 5 mL centrifuge tube, to which 0.1 mL of the [^99mTc]Tc-CNMCHDG solution (2.4 MBq) was added into the centrifuge tube in turn. The solution was then vortexed for 3 min and centrifuged for 3 min (3000 r/min). Then, 0.1 mL was removed from the two phases with a pipette gun, respectively, and the radioactive counts of the two phases were measured and used to calculate the partition coefficient P. The final partition coefficient was expressed as log P ± SD.

A549 tumor cells = assay: In vitro cellular uptake studies; assay type: cell-based, Human; settings: glucose-free DMEM, 1 h uptake
Protocol: Human alveolar basal epithelial cells from lung cancer cells (A549 cells) were used in in vitro cellular uptake studies. A549 cells in the logarithmic growth phase were collected, prepared in a cell suspension of 3 × 10^5 cells/mL DMEM medium, and seeded into a 24-well plate (1 mL/well). The cells were evenly dispersed in the holes by vibration. Afterwards, the well plate was placed in a 37 °C incubator with 5% CO2 overnight to enable the cells to grow and stick to the bottom of the wells. After the cells were attached to the wells, the medium in the well plate was aspirated and washed with 0.5 mL of glucose-free DMEM medium, followed by the addition of 0.5 mL of glucose-free DMEM for glucose deprivation. One hour later, 0.1 mL of glucose-free medium, D-glucose (2 mg), L-glucose (2 mg) and insulin (2 IU) were added to the wells, respectively, and the cells were preincubated for 15 min. Subsequently, 0.1 mL of [^99mTc]Tc-CNMCHDG complex solution (0.74 MBq) was added to each well, and the volume of the solution in the wells was made up to 1 mL using the glucose-free DMEM. The well plates continued to be incubated in a 37 °C incubator, and after 1 h, the medium was aspirated and washed twice with 0.5 mL of cold PBS solution (0.067 M, pH 7.4). The cells were lysed by adding 0.5 mL of a sodium hydroxide solution (1 M). Finally, the solution was transferred to plastic test tubes, and the radioactivity counts were measured using a γ-counter detector. This procedure was carried out four times for each group.

A549 tumor-bearing mice [4] = assay: Biodistribution in A549 tumor-bearing mice; assay type: in vivo, balb/c nude mice; settings: for tumor uptake: i.v., n = 3
Protocol: (§2) Animal studies were performed according to the Regulation on Laboratory Animals of the Beijing Municipality and the guidelines of the Ethics Committee of Beijing Normal University (permit no. BNUCC-EAW-2022-001). The A549 tumor-bearing model mice were developed by injecting 2 × 10^6 A549 cells in 0.1 mL of F-12k medium subcutaneously into the armpit of the right upper limb of balb/c nude mice. Similarly, the S180 tumor-bearing model mice were developed by subcutaneously injecting 1 × 10^6 S180 cells in 0.1 mL of saline into the right upper limb of female Kunming mice. The biodistribution of the tumor-bearing mice was determined when the tumor grew to approximately 5 mm after about two weeks of feeding. The A549 tumor mice were injected with 0.1 mL of the radiolabeled [^99mTc]Tc-CNMCHDG or [^99mTc]Tc-CN7DG solution (0.37 MBq) through the tail vein and sacrificed after 30 and 120 min post-injection (n = 3). In addition, to test whether the [^99mTc]Tc-CNMCHDG complex was involved in the glucose transporter mechanism, saline (0.1 mL), 2-deoxy-D-glucose (6 mg per mouse) and insulin (0.25 units per mouse) were injected into S180 tumor mice half an hour before administering the radiolabeled complex, and the mice were sacrificed at 60 min post-injection (n = 5). The organs and tissues of interest, such as heart, liver, lung, kidney, spleen, stomach, bone, intestine and tumor, were dissected, wiped and weighed. Finally, the radioactivity count in these organs and tissues was measured using a γ-counter detector, and the final results were expressed as the percent uptake of injected dose per gram ± the standard deviation (%ID/g ± SD).

S180 tumor-bearing mice = assay: Biodistribution in S180 tumor-bearing mice with pre-treatment (uptake mechanism); assay type: in vivo, female Kunming mice
Protocol: as §2

A549 tumor-bearing mice [5] = assay: SPECT/CT imaging studies; assay type: in vivo
Protocol: The radiolabeled [^99mTc]Tc-CNMCHDG solution (18.5 MBq) was injected into the A549 tumor-bearing mice via the tail vein, and the SPECT imaging study was performed at 2 h post-injection. In the same tumor mice, at the end of radioactive metabolism, the [^99mTc]Tc-CN7DG solution (18.5 MBq) was injected similarly into the same mice through the tail vein. The mice were anesthetized with 1.5% isoflurane and placed on a SPECT/CT scanner for imaging. The imaging scan settings were as follows: CT scan (512 views, 2 × 2 binding, 75 kV) for 15 min, followed by SPECT acquisition (Peak 140 keV, 20% width, 90° rotation, MMP 919 collimator) after 4 min. HiSPECT software and Vivoquant 2.5 software (Trifoil imaging, CA, USA) were used to acquire the SPECT/CT images (n = 3).

[6] = Pharmacokinetic characteristics (blood time-activity); assay type: in vivo; settings: healthy Kunming female mice
Protocol: Drug and Statistics (DAS) 3.2.8 software was used to calculate the pharmacokinetic parameters and to study the relationship between drug concentration and time based on the results. Time-activity curve of blood of [^99mTc]Tc-CNMCHDG in healthy kunming female mice was shown in Figure 6 and major pharmacokinetics parameters are listed in Table 1. […] In addition, the blood intake values were all lower than 0.1%ID/g at 90 min post-injection. According to the calculation results of the DAS 3.2.8 software, the distribution of [^99mTc]Tc-CNMCHDG in the blood was in accordance with the three-compartment mode.
Forty Kunming female mice were divided into eight groups and injected with 0.1 mL of [^99mTc]Tc-CNMCHDG (0.37 MBq) via tail vein, and were sacrificed at 2, 5, 10, 30, 60, 90, 120 and 240 min after injection, respectively. The blood samples were collected, weighed and counted a γ-counter detector to calculate the%ID/g value. The blood uptake-time curves were generated and analyzed by DAS 3.2.8 software.

[7] = S180 tumor-bearing mice, 60 min post-injection
[8] = blood, three-compartmental modeling (DAS 3.2.8), i.v.
[9] = blood, three-compartmental modeling, i.v.

O=C(NC1C(O)OC(CO)C(O)C1O)C1CCC(C[N+]#[C][99Tc+]([C]#[N+]CC2CCC(C(=O)NC3C(O)OC(CO)C(O)C3O)CC2)([C]#[N+]CC2CCC(C(=O)NC3C(O)OC(CO)C(O)C3O)CC2)([C]#[N+]CC2CCC(C(=O)NC3C(O)OC(CO)C(O)C3O)CC2)([C]#[N+]CC2CCC(C(=O)NC3C(O)OC(CO)C(O)C3O)CC2)[C]#[N+]CC2CCC(C(=O)NC3C(O)OC(CO)C(O)C3O)CC2)CC1 (centres unmarked) [[^99mTc]Tc-CNMCHDG]
radiochemical purity after incubation [1]: higher than 90% | radiochemical purity after incubation [2]: higher than 90% | partition coefficient (log P) [3]: −3.65 ± 0.10 | inhibition of cellular uptake by D-glucose (A549 tumor cells; D-glucose (2 mg) preincubated 15 min, p = 0.009): 29% | change of cellular uptake by L-glucose (A549 tumor cells; L-glucose (2 mg) preincubated 15 min): not significantly changed | increase of cellular uptake after insulin (A549 tumor cells; insulin (2 IU) preincubated 15 min, p = 0.002): 57% | kidney uptake (A549 tumor-bearing mice [4]; 30 min post-injection): 6.54 ± 1.10 %ID/g | liver uptake (A549 tumor-bearing mice [4]; 30 min post-injection): 2.74 ± 0.31 %ID/g | lung uptake (A549 tumor-bearing mice [4]; 30 min post-injection): 1.98 ± 0.31 %ID/g | tumor uptake (A549 tumor-bearing mice [4]; 30 min post-injection): 5.40 ± 0.29 %ID/g | tumor uptake compared to [^99mTc]Tc-CN7DG (A549 tumor-bearing mice [4]; 120 min post-injection): slightly lower | tumor/liver ratio (A549 tumor-bearing mice [4]; 120 min post-injection): 3.24 ± 0.25 | tumor/lung ratio (A549 tumor-bearing mice [4]; 120 min post-injection): 5.41 ± 0.39 | uptake in non-target organs such as liver and lung compared to [^99mTc]Tc-CN7DG (A549 tumor-bearing mice [4]; 120 min post-injection): significantly lower | tumor uptake (A549 tumor-bearing mice [4]; 120 min post-injection): 4.42 ± 0.36 %ID/g | tumor uptake (S180 tumor-bearing mice): 6.30 ± 0.56 %ID/g | decrease of tumor uptake by D-glucose pre-treatment (S180 tumor-bearing mice; [7]): 43% | increase of tumor uptake by insulin pre-treatment (S180 tumor-bearing mice; [7]): 35% | tumor uptake (S180 tumor-bearing mice; S180 tumor-bearing mice, 60 min post-injection, pre-treatment with D-glucose, n = 5): 2.64 ± 0.48 %ID/g | tumor uptake (S180 tumor-bearing mice; S180 tumor-bearing mice, 60 min post-injection, saline pre-treatment (control), n = 5): 4.66 ± 0.34 %ID/g | route of metabolism/excretion in vivo (SPECT/CT signals in bladder and kidney) (A549 tumor-bearing mice [5]; A549 tumor-bearing mouse, 2 h after administration): mainly metabolized through the urine system | visualization of the tumor by SPECT/CT (A549 tumor-bearing mice [5]; A549 tumor-bearing mouse, 2 h after administration, 18.5 MBq i.v.): clearly visualized | SPECT/CT uptake in non-target areas (liver and kidney) compared to [^99mTc]Tc-CN7DG (A549 tumor-bearing mice [5]; same A549 tumor-bearing mouse, 2 h post-injection): significantly lower | AUC(0-t) [6, 8]: 298.528 %ID/g × min | AUC(0-∞) [6, 8]: 353.484 %ID/g × min | t1/2α (blood distribution half-life) [6, 9]: 0.598 min | t1/2β (elimination half-life, fast chamber) [6, 9]: 10.706 min | t1/2γ (elimination half-life, slow chamber) [6, 9]: 218.932 min | blood uptake value ([6]; 2 min post-injection, i.v., n = 5): 21.22 ± 2.00 %ID/g | blood uptake value ([6]; 30 min post-injection): 1.50 ± 0.15 %ID/g | blood uptake value ([6]; 60 min post-injection): 0.37 ± 0.16 %ID/g | blood intake values ([6]; at 90 min post-injection): lower than 0.1 %ID/g
